Values quoted from earlier work, collected in patent publication US20230301919A1, “FREEZE DRIED LOW HYGROSCOPICITY ACTIVE POWDER COMPOSITIONS” (PHILIP MORRIS PRODUCTS S.A., priority 2020, published 2023).

Details: at 25° C.

solubility: 69 g/100 ml water
SMILES: OC[C@H]1O[C@H](O[C@H]2O[C@H](CO)[C@@H](O)[C@H](O)[C@H]2O)[C@H](O)[C@@H](O)[C@@H]1O [trehalose]
